# Values of other authors as cited in US20140080712A1, “COMPOSITIONS AND METHODS FOR DOUBLE ENCAPSULATION OF A VOLATILE COMPOUND” (AgroFresh Inc., priority 2012, published 2014).
# Test system: ethylene
# Conditions: freshness management
compound,measurement,value
"CC1=CC1 [Sample 1-MCP, 1-methylcyclopropene]",concentration effective in blocking ethylene,~100 ppb
